The record followed here is PubChem BioAssay AID1159562 (GlaxoSmithKline (GSK), 2015).

Calls of active or inactive are those of the source. How the calls were made is not given here. Bounds are passed on as bounds.

In the experiment the test system is Trypanosoma brucei growth inhibition, luminescence. The experiment can be described thus: antitrypanosomal activity against T. brucei – luminescence (AID 1159562).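 Further: parasites grew with compound for 24 h before the luminescence read.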
For `CN1CCC(N(C)c2nccc(N3CCN(C(=O)c4cccc(-c5cccnc5)c4)CC3)n2)CC1`, the IC50 was 1000 nM. As for `O=C(CSc1ccc(F)cc1)N[C@@H](Cc1cnc[nH]1)C(=O)NCCc1ccccc1`, the IC50 was > 40000 nM (inactive). Consider `CCCC(=O)N(Cc1ccccn1)c1nc2ccccc2s1`, for which the IC50 was > 40000 nM (inactive).

Regarding `CCNc1cc(-c2ccccn2)nc(Nc2ccccc2)n1`, the IC50 is 13000 nM.

On to `CC1CCCCN1C(=O)NCCc1coc(-c2ccc(F)cc2)n1` (configuration not stated), for which the IC50 is 160 nM. The same measure for `NCc1ccc2c(Cl)cc(Cl)c(O)c2n1`: 200 nM. The same measure for `O=C(Cn1cnc([N+](=O)[O-])n1)Nc1ccc(Cl)cc1C(=O)c1ccccc1`: 32000 nM.

Take `COc1cnc2ccc(=O)n(CCN3CCC(NC/C=C/c4cc(F)ccc4F)CC3)c2c1`: the concentration for half-maximal inhibition (IC50) was 790 nM. With `O=c1oc2ccccc2n1C1CCN(Cc2ccccc2-c2cccnc2)CC1`, the IC50 was > 40000 nM (inactive). `COc1ccc2ncc(F)c(CCN3CC[C@@H](NC(=O)c4cc5c(s4)CCC5)[C@@H](O)C3)c2n1`: the IC50 is 320 nM. Under `NC(=O)c1ncc(N[C@@H]2CCCNC2)nc1Nc1cccc(Cl)c1` stands 200 nM; under `O=C(Nc1ccc(C(=O)N2CCCC2c2ccc3c(c2)OCCCO3)cc1)c1ccco1` (configuration not stated), 320 nM; under `Cn1nc([N+](=O)[O-])nc1Oc1ccc(C(=O)c2ccccc2)cc1`, > 40000 nM (inactive). For `Cc1ccc2onc(Nc3ccnc(Nc4cccc(S(C)(=O)=O)c4)n3)c2c1`, the IC50 was 7900 nM. Regarding `CC(C)Nc1nc(Cl)nc2ccccc12`, the IC50 was 13000 nM. Under `NC(=O)c1cc(F)ccc1Nc1nc(NC2CCC(O)CC2)ncc1Br` (configuration not stated) stands 320 nM; under `COc1cccc(C(=O)[C@H]2C[C@@H]2CN(Cc2ccccn2)Cc2ccccn2)c1`, 20000 nM; under `CC(C)(C)C(Cn1ccnc1)NC(=O)c1ccc2nc(C3CC3)oc2c1` (configuration not stated), > 40000 nM (inactive). For the compound `COc1ccc(C(C)N(C)c2ncc3c(N)nc(N)nc3n2)cc1F` (configuration not stated), the IC50 was 5000 nM. Under `COc1ccc(S(=O)(=O)NCc2ccc(-c3ccc(CN(C)CCO)cc3)cc2)cc1` stands 3200 nM; under `O=C(Nc1ccccc1C(=O)Nc1ccccn1)c1ccco1`, 500 nM; under `COc1cc(Nc2nccc(Nc3onc(C)c3C)n2)cc(S(=O)(=O)C2CCOCC2)c1`, 500 nM.

For the compound `Cc1cccc(Nc2nc(-c3ccccn3)cs2)n1`, the 50% inhibitory concentration (IC50) was 500 nM. `CN(Cc1ccccc1)Cc1nnnn1C1CCN(Cc2ccc(-n3ccnc3)cc2)CC1`: the IC50 is > 40000 nM (inactive).

Regarding `O=C1CSC(c2cccnc2)N1c1ccc(Cl)cc1Cl` (configuration not stated), the IC50 was > 40000 nM (inactive). The same measure for `COc1ccc(C(=O)Nc2c(C)nn(COc3cccc(C(F)(F)F)c3)c2C)cc1`: 790 nM; for `Cc1ccccc1NS(=O)(=O)c1ccc2[nH]cc(C(=O)NC3CCCC3)c(=O)c2c1`: 630 nM.

Take `O=c1cc(CSc2ccc(Cl)cc2)nc(-c2ccccn2)[nH]1`: the IC50 is 1000 nM. As for `Cc1occc1C(=O)Nc1ccccc1C(=O)Nc1nccs1`, the half-inhibitory concentration (IC50) is 500 nM.

In the case of `O=C(NCCc1ccn(-c2ccccc2)n1)C1CCCCC1`, the half-maximal inhibitory concentration (IC50) was 320 nM.

Take `O=C(c1ccc(Cl)cc1)c1ccc(OC(=O)N2CCOCC2)cc1`: the IC50 was > 40000 nM (inactive). The same measure for `Cc1cccc(NS(=O)(=O)c2cnc3sc(C)cn3c2=O)c1`: > 40000 nM (inactive). In the case of `Cc1cc(C)n(-c2nc(NC(C)(C)C)nc(N3CCOCC3)n2)n1`, the IC50 is 4000 nM.

As to `O=c1ccc2ccc(F)c3c2n1C[C@H]3CN1CCC(NCc2cc3ccccc3o2)CC1`, the half-maximal inhibitory concentration (IC50) was 2000 nM.

Consider `COc1ccccc1C=CCN1C[C@H]2CCC[C@@H](C1)C2(O)c1cccnc1` (some centres not stated), for which the IC50 was > 40000 nM (inactive).

In the case of `Cc1nn(-c2nc3ccccc3s2)c2c1C(c1ccc(OCC(N)=O)cc1)SCC(=O)N2` (configuration not stated), the IC50 was 32 nM. For the compound `CCN(CC)S(=O)(=O)c1ccc(C(=O)Nc2cc(C)nn2-c2nc(C)c(C)c(=O)[nH]2)cc1`, the IC50 was 320 nM.

A word on the IC50: it is the midpoint of a concentration-inhibition curve.
